Source: patent US4994270A, “A54145 antibiotics and process for their production” (Eli Lilly and Company, priority 1988, dated 1991)
Converted amounts (≈) assume the structure as drawn. Starred links: 1 amine or outer side, 2 acyl side, 3 side chain; linkers in the order of their positions; H or OH if unused. Positions of bridges follow the written chain, without caps; N, C: chain ends. Non-standard residues stand in square brackets, D forms with d. Residues, ends and D or L forms follow the SMILES beside them. ξ: configuration not given here. *: point of attachment. ξAsp(3ξ-OMe) = COC(C(=O)O)C(N)C(=O)O; X1 = CC(CC(=O)O)C(N[*:1])C(=O)[*:2]; ξAsn(3ξ-OH) = NC(=O)C(O)C(N)C(=O)O; Decanoyl = CCCCCCCCCC(=O)*; X3 = CCC(C)CCCCCCC(=O)*; X2 = CC(C)CCCCCCC(=O)*; Sar = CNCC(=O)O

Experiments:
[1] = tested on: Streptomyces fradiae A54145.1, A54145.2 and A54145.3; experiment: Resistance to antibiotics, sensitivity discs on seeded ISP No. 2 agar plates; details: identical for A54145.1, A54145.2, A54145.3; lincomycin 2 μg, penicillin G 10 units, bacitracin 10 units, cephalothin 30 μg, gentamicin 10 μg, neomycin 30 μg, oleandomycin 15 μg, rifampin 5 μg, streptomycin 10 μg, tetracycline 30 μg, tobramycin 10 μg, vancomycin 30 μg
Protocol: Resistance to antibiotics was measured by padding antibiotic sensitivity discs onto the surface of seeded ISP No. 2 agar plates.

[2] = tested on: Staphylococcus aureus S13E; experiment: MIC, conventional agar-dilution assay; assay type: cell-based
Protocol: (§1) The A54145 antibiotics inhibit the growth of pathogenic bacteria. […] The MIC's in Table IX were determined by conventional agar-dilution assays.

[3] = tested on: Staphylococcus aureus V41; experiment: MIC, conventional agar-dilution assay; assay type: cell-based
Protocol: as §1

[4] = tested on: Staphylococcus aureus X1.1; experiment: MIC, conventional agar-dilution assay; assay type: cell-based
Protocol: as §1

[5] = tested on: Staphylococcus aureus X400; experiment: MIC, conventional agar-dilution assay; assay type: cell-based
Protocol: as §1

[6] = tested on: Staphylococcus epidermidis 222; experiment: MIC, conventional agar-dilution assay; assay type: cell-based
Protocol: as §1

[7] = tested on: Staphylococcus epidermidis EPI1; experiment: MIC, conventional agar-dilution assay; assay type: cell-based
Protocol: as §1

[8] = tested on: Streptococcus pneumoniae Park1; experiment: MIC, conventional agar-dilution assay; assay type: cell-based
Protocol: as §1

[9] = tested on: Streptococcus pyogenes C203; experiment: MIC, conventional agar-dilution assay; assay type: cell-based
Protocol: as §1

[10] = tested on: Streptococcus sp. group 2041; experiment: MIC, conventional agar-dilution assay; assay type: cell-based
Protocol: as §1

[11] = tested on: Streptococcus sp. group D X66; experiment: MIC, conventional agar-dilution assay; assay type: cell-based
Protocol: as §1

[12] = tested on: Streptococcus pyogenes; experiment: ED50 in experimentally infected mice; assay type: in vivo; details: mice infected with Streptococcus pyogenes; subcutaneous; doses given 1 and 4 hours postinfection
Protocol: The A54145 antibiotics have shown in vivo antimicrobial activity against experimentally-induced infections in laboratory animals. When two doses of test compound were administered to mice experimentally infected with Streptococcus pyogenes or Staphylococcus aureus, the activity observed was measured as an ED50 value [effective dose in mg/kg to protect 50% of the test animals: see Warren Wick, et al. J. Bacteriol. 81 233-235 (1961)].

[13] = Chick growth performance test (weight gain, feed efficiency); assay type: in vivo, chicks; details: Table XIII; for Weight Gain Amt.: chicks 7-14 days of age; for Feed/Gain % Impr. / Weight Gain % Impr.: relative to the control mean
Text: In the tests, the compounds were given to chicks at the concentrations indicated in the feed. The test period was the 7-day period from 7-14 days of age of the birds. Growth performance (weight gain, feed consumption and feed efficiency) was compared to that of contemporary controls.

Row | Molecule | resistance or sensitivity of the strains to antibiotic discs [1] | MIC [2] [µg/mL] | MIC [3] [µg/mL] | MIC [4] [µg/mL] | MIC [5] [µg/mL] | MIC [6] [µg/mL] | MIC [7] [µg/mL] | MIC [8] [µg/mL] | MIC [9] [µg/mL] | MIC [10] [µg/mL] | MIC [11] [µg/mL] | further results
1 | neomycin | sensitive | – | – | – | – | – | – | – | – | – | – | –
2 | CC(=O)OCC1=C(C(=O)O)N2C(=O)[C@@H](NC(=O)Cc3cccs3)[C@H]2SC1 [cephalothin] | sensitive | – | – | – | – | – | – | – | – | – | – | –
3 | CN[C@H](CC(C)C)C(=O)N[C@H]1C(=O)N[C@@H](CC(N)=O)C(=O)N[C@H]2C(=O)N[C@H]3C(=O)N[C@H](C(=O)N[C@H](C(=O)O)c4cc(O)cc(O)c4-c4cc3ccc4O)[C@H](O)c3ccc(c(Cl)c3)Oc3cc2cc(c3O[C@@H]2O[C@H](CO)[C@@H](O)[C@H](O)[C@H]2O[C@H]2C[C@](C)(N)[C@H](O)[C@H](C)O2)Oc2ccc(cc2Cl)[C@H]1O [vancomycin] | sensitive | – | – | – | – | – | – | – | – | – | – | –
4 | CC1(C)S[C@@H]2[C@H](NC(=O)Cc3ccccc3)C(=O)N2[C@H]1C(=O)O [penicillin G] | resistant | – | – | – | – | – | – | – | – | – | – | –
5 | CCCCCCCCCC(=O)NC(Cc1c[nH]c2ccccc12)C(=O)NC(CCC(=O)O)C(=O)NC(C(=O)NC1C(=O)N(C)CC(=O)NC(C)C(=O)NC(CC(=O)O)C(=O)NC(CCCCN)C(=O)NC(C(OC)C(=O)O)C(=O)NCC(=O)NC(CC(N)=O)C(=O)NC(CCC(=O)O)C(=O)NC(C(C)CC)C(=O)OC1C)C(O)C(N)=O (stereo not shown) [Component A54145A1] (Decanoyl-WE[ξAsn(3ξ-OH)]T[Sar]ADK[ξAsp(3ξ-OMe)]GNEI; ester 4-C; configuration not given here) | – | 8 (≈ 4.86 µM) | 4 (≈ 2.43 µM) | 4 (≈ 2.43 µM) | 8 (≈ 4.86 µM) | 4 (≈ 2.43 µM) | 4 (≈ 2.43 µM) | 4 (≈ 2.43 µM) | 1 (≈ 0.608 µM) | 32 (≈ 19.5 µM) | 16 (≈ 9.73 µM) | ED50 Value [12]: 5.0 mg/kg × 2
6 | CCC(C)C1NC(=O)C(C(C)CC(=O)O)NC(=O)C(CC(N)=O)NC(=O)CNC(=O)C(C(OC)C(=O)O)NC(=O)C(CCCCN)NC(=O)C(CC(=O)O)NC(=O)C(C)NC(=O)CN(C)C(=O)C(NC(=O)C(NC(=O)C(CCC(=O)O)NC(=O)C(Cc2c[nH]c3ccccc23)NC(=O)CCCCCCC(C)C)C(O)C(N)=O)C(C)OC1=O (stereo not shown) [Component A54145B1] (X2-WE[ξAsn(3ξ-OH)]T[Sar]ADK[ξAsp(3ξ-OMe)]GN[X1]I; ester 4-C; configuration not given here) | – | 2 (≈ 1.21 µM) | 2 (≈ 1.21 µM) | 2 (≈ 1.21 µM) | 2 (≈ 1.21 µM) | 1 (≈ 0.603 µM) | 1 (≈ 0.603 µM) | 2 (≈ 1.21 µM) | 0.5 (≈ 0.301 µM) | 32 (≈ 19.3 µM) | 8 (≈ 4.82 µM) | Feed/Gain Ratio ([13]; 5 g/ton): 1.906; Weight Gain Amt. ([13]; 5 g/ton in feed): 326 g; Feed/Gain % Impr. ([13]; 5 g/ton): 5.3%; Weight Gain % Impr. ([13]; 5 g/ton): 3.5%; Feed/Gain Ratio ([13]; 10 g/ton): 1.860; Weight Gain Amt. ([13]; 10 g/ton in feed): 358 g; Feed/Gain % Impr. ([13]; 10 g/ton): 7.4%; Weight Gain % Impr. ([13]; 10 g/ton): 13.7%; Feed/Gain Ratio ([13]; 20 g/ton): 1.686; Weight Gain Amt. ([13]; 20 g/ton in feed): 448 g; Feed/Gain % Impr. ([13]; 20 g/ton): 16.2%; Weight Gain % Impr. ([13]; 20 g/ton): 42.2%
7 | CN(C)[C@@H]1C(O)=C(C(N)=O)C(=O)[C@@]2(O)C(O)=C3C(=O)c4c(O)cccc4[C@@](C)(O)[C@H]3C[C@@H]12 [tetracycline] | sensitive | – | – | – | – | – | – | – | – | – | – | –
8 | CCC(C)CCCCCCC(=O)NC(Cc1c[nH]c2ccccc12)C(=O)NC(CCC(=O)O)C(=O)NC(C(=O)NC1C(=O)N(C)CC(=O)NC(C)C(=O)NC(CC(=O)O)C(=O)NC(CCCCN)C(=O)NC(C(OC)C(=O)O)C(=O)NCC(=O)NC(CC(N)=O)C(=O)NC(C(C)CC(=O)O)C(=O)NC(C(C)CC)C(=O)OC1C)C(O)C(N)=O (stereo not shown) [Component A54145E] (X3-WE[ξAsn(3ξ-OH)]T[Sar]ADK[ξAsp(3ξ-OMe)]GN[X1]I; ester 4-C; configuration not given here) | – | 2 (≈ 1.2 µM) | 2 (≈ 1.2 µM) | 1 (≈ 0.598 µM) | 2 (≈ 1.2 µM) | 1 (≈ 0.598 µM) | 1 (≈ 0.598 µM) | 1 (≈ 0.598 µM) | 0.25 (≈ 0.149 µM) | 4 (≈ 2.39 µM) | 2 (≈ 1.2 µM) | –
9 | CCC(C)CCCCCCC(=O)NC(Cc1c[nH]c2ccccc12)C(=O)NC(CCC(=O)O)C(=O)NC(C(=O)NC1C(=O)N(C)CC(=O)NC(C)C(=O)NC(CC(=O)O)C(=O)NC(CCCCN)C(=O)NC(C(OC)C(=O)O)C(=O)NCC(=O)NC(CC(N)=O)C(=O)NC(CCC(=O)O)C(=O)NC(C(C)CC)C(=O)OC1C)C(O)C(N)=O (stereo not shown) [Component A54145D] (X3-WE[ξAsn(3ξ-OH)]T[Sar]ADK[ξAsp(3ξ-OMe)]GNEI; ester 4-C; configuration not given here) | – | 4 (≈ 2.41 µM) | 4 (≈ 2.41 µM) | 4 (≈ 2.41 µM) | 4 (≈ 2.41 µM) | 2 (≈ 1.21 µM) | 2 (≈ 1.21 µM) | 4 (≈ 2.41 µM) | 0.5 (≈ 0.301 µM) | 32 (≈ 19.3 µM) | 4 (≈ 2.41 µM) | –
